Experimental data reported in PMC11280325, “Design, Synthesis, and Characterization of Novel Thiazolidine-2,4-Dione-Acridine Hybrids as Antitumor Agents” (Molecules, 2024).

Key:
[1] = tested on: A2058; assay: MTT assay, A2058; assay type: cell-based; conditions: Homo sapiens, A2058, 48 h, human melanoma, 48 h incubation
Description: (§1) The human cancer cell lines HeLa (cervical adenocarcinoma), HCT116 (colorectal adenocarcinoma), A2780 (human ovarian adenocarcinoma), A2780cis (human ovarian adenocarcinoma cisplatin-resistant), Jurkat (acute T-lymphoblastic leukemia), and Hep G2 (hepatocellular carcinoma) were cultured in an RPMI 1640 growth medium (Biosera, Kansas City, MO, USA). The cancer cell lines MDA-MB-231 (triple-negative breast adenocarcinoma), A2058 (human melanoma), U87 (human glioblastoma), PATU 8902 (pancreas adenocarcinoma), and A549 (human lung adenocarcinoma) were cultured in a DMEM medium (Biosera, Kansas City, MO, USA). The media were supplemented with 10% fetal bovine serum (FBS) (Invitrogen, Carlsbad, CA, USA) and 1× HyClone™ Antibiotic/Antimycotic Solution (GE Healthcare, Piscataway, NJ, USA).
(§2) To evaluate the IC50 (half-maximal inhibitory concentration) and confirm the antiproliferative activity of the tested substances, we employed the colorimetric MTT assay (3-(4,5-dimethylthiazol-2-yl)-2,5-diphenyltetrazolium bromide) (Sigma-Aldrich Chemie, Steinheim, Germany). The cell lines were seeded in 96-well plates at a density of 5 × 10^3 to 10 × 10^3 cells per well. After 24 h, the tested substances, dissolved in the cultivation medium, were added to the cells at final concentrations of 5, 10, 20, and 50 µmol/L. The cells were then incubated for 48 h under standard cultivation conditions. Following the incubation period, MTT was added to each well. The MTT was metabolized by the cells into insoluble formazan crystals, which were subsequently dissolved by adding 100 µL of 10% SDS. After another 24 h, the absorbance was measured at a wavelength of 540 nm using the automated Cytation™ 3 Cell Imaging Multi-Mode Reader (Biotek, Winooski, VT, USA). The experiments were performed in at least three independent repetitions. IC50 values were calculated using a nonlinear regression method.

[2] = tested on: Hep G2; assay: MTT assay, Hep G2; assay type: cell-based, human; conditions: Homo sapiens, HepG2, 48 h, hepatocellular carcinoma, 48 h incubation
Description: as §1, §2

[3] = tested on: A549; assay: MTT assay, A549; assay type: cell-based, human; conditions: lung adenocarcinoma, 48 h incubation
Description: as §1, §2

[4] = tested on: HCT116; assay: MTT assay, HCT116; assay type: cell-based, human; conditions: colorectal adenocarcinoma, 48 h incubation
Description: as §1, §2

[5] = tested on: HeLa; assay: MTT assay, HeLa; assay type: cell-based, human; conditions: cervical adenocarcinoma, 48 h incubation
Description: as §1, §2

[6] = tested on: PATU; assay: MTT assay, PATU 8902; assay type: cell-based, human; conditions: pancreas adenocarcinoma, 48 h incubation
Description: as §1, §2

[7] = tested on: A2780; assay: MTT assay, A2780; assay type: cell-based, human; conditions: ovarian adenocarcinoma, 48 h incubation
Description: as §1, §2

[8] = tested on: MCF-10A; assay: MTT assay, MCF-10A non-cancerous cells; assay type: cell-based, human; conditions: non-cancerous epithelial breast cells, 48 h incubation
Description: (§3) The non-cancerous cell line MCF-10A (human epithelial breast cells) was cultured in a DMEM F12 medium supplemented with 10% FBS (Invitrogen, Carlsbad, CA, USA), 1× HyClone™ Antibiotic/Antimycotic Solution (GE Healthcare, Piscataway, NJ, USA), insulin, hEGF, and hydrocortisone. The BJ-5ta cells (human dermal fibroblasts) were cultured in a DMEM-M199 4:1 medium mixture, supplemented with 10% FBS and hygromycin B (0.01 mg/mL). The cells were maintained under standard conditions with an atmosphere containing 5% CO2 at 37 °C. Cell viability, estimated by trypan blue exclusion, was consistently greater than 95% before each experiment.
as §2

[9] = tested on: Bj-5ta; assay: MTT assay, BJ-5ta non-cancerous fibroblasts; assay type: cell-based, human; conditions: Homo sapiens, Fibroblast, 48 h, non-cancerous dermal fibroblasts, 48 h incubation
Description: as §3, §2

SMILES | IC50 [1] [µM] | melting point | IC50 [2] [µM] | IC50 [3] [µM] | IC50 ([4]; Homo sapiens, HCT-116, 48 h) [µM] | IC50 ([5]; Homo sapiens, HeLa, 48 h) [µM] | IC50 ([6]; Homo sapiens, PaTu 8902, 48 h) [µM] | IC50 ([7]; Homo sapiens, A2780, 48 h) [µM] | IC50 ([8]; Homo sapiens, MCF-10A, 48 h) [µM] | IC50 [9] [µM] | IC50 ([3]; Homo sapiens, A549, 48 h) [µM] | IC50 [4] [µM] | IC50 [5] [µM] | IC50 [8] [µM] | IC50 [6] [µM] | IC50 [7] [µM]
O=C(COc1ccc(/C=C2\SC(=O)N(Cc3c4ccccc4nc4ccccc34)C2=O)cc1)Nc1cccc(C(F)(F)F)c1 [Compound 7f, 2-(4-{[(5Z)-3-[(Acridin-9-yl)methyl]-2,4-dioxo-1,3-thiazolidin-5-ylidene]methyl}phenoxy)-N-[3-(trifluoromethyl)phenyl]acetamide] | > 50 | 250 to 251 °C (dec.) | 28.1 ± 5.5 | 16.4 ± 1.85 | 8.8 ± 3.7 | 6.2 ± 1.3 | 11.5 ± 2.06 | > 50 | 9.8 ± 1.9 | 32.6 ± 7.4 | – | – | – | – | – | –
O=C(COc1ccc(/C=C2\SC(=O)N(Cc3c4ccccc4nc4ccccc34)C2=O)cc1)Nc1ccc([N+](=O)[O-])cc1 [Compound 7d, 2-(4-{[(5Z)-3-[(Acridin-9-yl)methyl]-2,4-dioxo-1,3-thiazolidin-5-ylidene]methyl}phenoxy)-N-(4-nitrophenyl)acetamide] | > 50 | 293 to 294 °C | > 50 | – | – | – | > 50 | > 50 | > 50 | > 50 | > 50 | > 50 | 20.1 ± 2.95 | – | – | –
COc1cc(/C=C2\SC(=O)N(Cc3c4ccccc4nc4ccccc34)C2=O)ccc1OCC(=O)Nc1ccc([N+](=O)[O-])cc1 [Compound 12d, 2-(4-{[(5Z)-3-[(Acridin-9-yl)methyl]-2,4-dioxo-1,3-thiazolidin-5-ylidene]methyl}-2-methoxyphenoxy)-N-(4-nitrophenyl)acetamide] | > 50 | 288 to 290 °C | > 50 | – | 14.6 ± 1.7 | – | > 50 | > 50 | > 50 | > 50 | 31.2 ± 1.1 | – | 9.4 ± 0.3 | – | – | –
COc1cc(/C=C2\SC(=O)N(Cc3c4ccccc4nc4ccccc34)C2=O)ccc1OCC(=O)Nc1cc(C(F)(F)F)cc(C(F)(F)F)c1 [Compound 12g, 2-(4-{[(5Z)-3-[(Acridin-9-yl)methyl]-2,4-dioxo-1,3-thiazolidin-5-ylidene]methyl}-2-methoxyphenoxy)-N-[3,5-bis(trifluoromethyl)phenyl]acetamide] | > 50 | 287 to 288 °C | > 50 | – | – | 20.7 ± 5.3 | > 50 | > 50 | > 50 | > 50 | > 50 | 6.7 ± 2 | – | – | – | –
COc1cc(NC(=O)COc2ccc(/C=C3\SC(=O)N(Cc4c5ccccc5nc5ccccc45)C3=O)cc2)cc(OC)c1OC [Compound 7c, 2-(4-{[(5Z)-3-[(Acridin-9-yl)methyl]-2,4-dioxo-1,3-thiazolidin-5-ylidene]methyl}phenoxy)-N-(3,4,5-trimethoxyphenyl)acetamide] | > 50 | 248 to 249 °C | > 50 | – | – | – | > 50 | > 50 | – | > 50 | > 50 | > 50 | 6.8 ± 2.4 | 14.5 ± 2.5 | – | –
O=C(COc1ccc(/C=C2\SC(=O)N(Cc3c4ccccc4nc4ccccc34)C2=O)cc1)Nc1ccccc1C(F)(F)F [Compound 7e, 2-(4-{[(5Z)-3-[(Acridin-9-yl)methyl]-2,4-dioxo-1,3-thiazolidin-5-ylidene]methyl}phenoxy)-N-[2-(trifluoromethyl)phenyl]acetamide] | > 50 | 256 to 257 °C (dec.) | > 50 | – | – | – | – | > 50 | > 50 | > 50 | > 50 | 22.3 ± 4.6 | > 50 | – | > 50 | –
COc1cc(NC(=O)COc2ccc(/C=C3\SC(=O)N(Cc4c5ccccc5nc5ccccc45)C3=O)cc2OC)cc(OC)c1 [Compound 12b, 2-(4-{[(5Z)-3-[(Acridin-9-yl)methyl]-2,4-dioxo-1,3-thiazolidin-5-ylidene]methyl}-2-methoxyphenoxy)-N-(3,5-dimethoxyphenyl)acetamide] | > 50 | 264 to 265 °C | > 50 | – | – | 7.3 ± 3.4 | > 50 | – | 15.6 ± 2.6 | > 50 | 34.5 ± 5.4 | 10.2 ± 2.1 | – | – | – | > 50
COc1cc(/C=C2\SC(=O)N(Cc3c4ccccc4nc4ccccc34)C2=O)ccc1OCC(=O)Nc1ccccc1 [Compound 12a, 2-(4-{[(5Z)-3-[(Acridin-9-yl)methyl]-2,4-dioxo-1,3-thiazolidin-5-ylidene]methyl}-2-methoxyphenoxy)-N-phenylacetamide] | > 50 | 260 to 262 °C | > 50 | – | – | 18.7 ± 0.45 | > 50 | – | – | > 50 | > 50 | > 50 | – | > 50 | – | > 50
COc1cc(NC(=O)COc2ccc(/C=C3\SC(=O)N(Cc4cccc5cc6ccccc6nc45)C3=O)cc2OC)cc(OC)c1 [Compound 13b, 2-(4-{[(5Z)-3-[(Acridin-4-yl)methyl]-2,4-dioxo-1,3-thiazolidin-5-ylidene]methyl}-2-methoxyphenoxy)-N-(3,5-dimethoxyphenyl)acetamide] | 34.4 ± 2.45 | 222 to 224 °C | > 50 | – | 44.7 ± 4.1 | 25.7 ± 3.45 | > 50 | > 50 | 43.6 ± 3.3 | 41.7 ± 0.8 | 38.9 ± 2.1 | – | – | – | – | –
COc1cc(/C=C2\SC(=O)N(Cc3c4ccccc4nc4ccccc34)C2=O)ccc1OCC(=O)Nc1cccc(C(F)(F)F)c1 [Compound 12f, 2-(4-{[(5Z)-3-[(Acridin-9-yl)methyl]-2,4-dioxo-1,3-thiazolidin-5-ylidene]methyl}-2-methoxyphenoxy)-N-[3-(trifluoromethyl)phenyl]acetamide] | > 50 | 269 to 270 °C | > 50 | – | – | 11.5 ± 3.3 | > 50 | > 50 | > 50 | > 50 | > 50 | > 50 | – | – | – | –
COc1cc(/C=C2\SC(=O)N(Cc3cccc4cc5ccccc5nc34)C2=O)ccc1OCC(=O)Nc1ccccc1C(F)(F)F [Compound 13e, 2-(4-{[(5Z)-3-[(Acridin-4-yl)methyl]-2,4-dioxo-1,3-thiazolidin-5-ylidene]methyl}-2-methoxyphenoxy)-N-[2-(trifluoromethyl)phenyl]acetamide] | 35.2 ± 2.87 | 217 to 218 °C | > 50 | – | 9.9 ± 1.7 | 26.7 ± 3.8 | > 50 | > 50 | 14.9 ± 0.16 | > 50 | > 50 | – | – | – | – | –
O=C(COc1ccc(/C=C2\SC(=O)N(Cc3c4ccccc4nc4ccccc34)C2=O)cc1)Nc1ccccc1 [Compound 7a, 2-(4-{[(5Z)-3-[(Acridin-9-yl)methyl]-2,4-dioxo-1,3-thiazolidin-5-ylidene]methyl}phenoxy)-N-phenylacetamide] | > 50 | 249 to 250 °C | > 50 | > 50 | – | 24.3 ± 3.8 | > 50 | > 50 | – | > 50 | – | 37.6 ± 4.2 | – | > 50 | – | –
